Data taken from ChEMBL document CHEMBL1147866, “Cyclic monophosphate prodrugs of base-modified 2'-C-methyl ribonucleosides as potent inhibitors of hepatitis C virus RNA replication” (Bioorg Med Chem Lett, 2007).

Assays:
Hepatitis C virus = assay: Antiviral activity against hepatitis C virus replication; assay type: functional, organism-based, Hepacivirus hominis
[1] = system: Bovine viral diarrhea virus 1; assay: Antiviral activity against Bovine viral diarrhea virus 1; assay type: functional, organism-based; conditions: Bovine viral diarrhea virus isolates and strains
Rhesus monkey = assay: Metabolic stability in monkey plasma after 1 hr; assay type: ADME, Macaca mulatta
[2] = Metabolic stability in rat plasma after 1 hr; assay type: ADME, organism-based; conditions: read-out: Stability
Homo sapiens = species: Homo sapiens; assay: Metabolic stability in human plasma after 1 hr; assay type: ADME, organism-based

`CC(C)OC(=O)OCOP1(=O)O[C@H]2O[C@@H](n3cnc4c(N(C)NS(C)(=O)=O)ncnc43)[C@](C)(O)[C@@H]2O1` (some centres undefined) gave an EC50 (Hepatitis C virus) of 463 nM and an EC50 [1] of 420 nM.
With `CC(C)OC(=O)OCOP1(=O)O[C@H]2O[C@@H](n3cnc4c(N(C)NS(C)(=O)=O)nc(N)nc43)[C@](C)(O)[C@@H]2O1` (some centres undefined) the EC50 (Hepatitis C virus) was 163 nM and the EC50 [1] was 216 nM.
For `CN(NS(C)(=O)=O)c1nc(N)nc2c1ncn2[C@@H]1O[C@@H]2OP(=O)(OCOC(=O)C(C)(C)C)O[C@H]2[C@@]1(C)O` (some centres undefined), the EC50 (Hepatitis C virus) was 92 nM and the EC50 [1] was 223 nM.
For `CN(NS(C)(=O)=O)c1ncnc2c1ncn2[C@@H]1O[C@@H]2OP(=O)(OCCSC(=O)C(C)(C)C)O[C@H]2[C@@]1(C)O` (some centres undefined), the EC50 (Hepatitis C virus) was 145 nM and the EC50 [1] was 245 nM.
With `CN(NS(C)(=O)=O)c1ncnc2c1ncn2[C@@H]1O[C@@H]2OP(=O)(OCOC(=O)C(C)(C)C)O[C@H]2[C@@]1(C)O` (some centres undefined) the EC50 (Hepatitis C virus) was 414 nM and the EC50 [1] was 962 nM.
Compound `CCCOCC(C)(C)C(=O)SCCOP1(=O)O[C@H]2O[C@@H](n3cnc4c(N(C)NS(C)(=O)=O)ncnc43)[C@](C)(O)[C@@H]2O1` (some centres undefined) has an EC50 (Hepatitis C virus) of 39 nM and an EC50 [1] of 110 nM.
In the case of `CCCOC(C)(C)C(=O)SCCOP1(=O)O[C@H]2O[C@@H](n3cnc4c(N(C)NS(C)(=O)=O)nc(N)nc43)[C@](C)(O)[C@@H]2O1` (some centres undefined), the EC50 (Hepatitis C virus) is reported as 8 nM, the Stability (Rhesus monkey) is reported as “Stable” and the remaining at 1 h [2] is reported as 4%. For the same compound, the EC50 [1] was 16 nM and the Stability (Homo sapiens) was “Stable”.
`CN(NS(C)(=O)=O)c1nc(N)nc2c1ncn2[C@@H]1O[C@@H]2OP(=O)(OCCSC(=O)C(C)(C)C)O[C@H]2[C@@]1(C)O` (some centres undefined) gave an EC50 (Hepatitis C virus) of 22 nM and an EC50 [1] of 33 nM.
